Data: patent EP4603105A1, “PHARMACEUTICAL COMPOSITION CONTAINING CYCLIC COMPOUND HAVING SELECTIVE KRAS INHIBITORY EFFECT AGAINST HRAS AND NRAS” (CHUGAI SEIYAKU KABUSHIKI KAISHA, priority 2022, dated 2024)

Columns and labels:
[1] = biological target: GDP-bound NRAS wild-type protein (Homo sapiens, UniProt P01111); assay: Binding to NRAS by surface plasmon resonance (SPR), KD and KD ratio to KRAS
Summary of the method: (§1)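 Affinity is measured by surface plasmon resonance at 30°C against captured, GDP-loaded RAS carrying a biotinylated Avi tag. Compounds are titrated by single-cycle kinetics, and KD comes from a 1:1 fit.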

[2] = tested on: human lung cancer strain NCI-H441; type: cell-based
Summary of the method: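 Readout: […] after the ATP-based reagent. Compound: serial dilutions in dimethyl sulfoxide.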

HRAS wild-type protein = HRAS wild-type protein (Homo sapiens, UniProt P01112); assay: Binding to HRAS by surface plasmon resonance (SPR), KD and KD ratio to KRAS
HRAS wild-type protein, sequence (P01112 whole entry): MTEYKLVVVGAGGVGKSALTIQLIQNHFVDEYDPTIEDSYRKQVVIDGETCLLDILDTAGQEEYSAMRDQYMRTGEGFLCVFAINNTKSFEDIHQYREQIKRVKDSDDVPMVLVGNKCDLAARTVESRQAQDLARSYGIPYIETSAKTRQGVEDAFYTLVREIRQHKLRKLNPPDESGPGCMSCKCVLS
Summary of the method: as §1

[3] = biological target: GDP-bound KRAS wild-type protein (Homo sapiens, UniProt P01116); assay: Binding to KRAS by surface plasmon resonance (SPR), dissociation constant KD
GDP-bound KRAS wild-type protein, sequence (P01116 1-188 isoform P01116-2): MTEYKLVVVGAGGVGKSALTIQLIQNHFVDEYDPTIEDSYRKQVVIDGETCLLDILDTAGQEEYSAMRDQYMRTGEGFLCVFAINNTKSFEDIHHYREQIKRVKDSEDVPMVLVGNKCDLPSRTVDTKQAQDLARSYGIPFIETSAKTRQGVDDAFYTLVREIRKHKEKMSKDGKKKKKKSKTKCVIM
Summary of the method: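 Captured GDP-RAS (~100–300 RU) was exposed to increasing compound concentrations, 75 s per step, in running buffer with 10 µM GDP, 10 mM MgCl2 and 4% DMSO at pH 7.4.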

[4] = ratio of the KD value with respect to GDP-bound NRAS wild-type protein to the KD value with respect to KRAS
[5] = ratio of the KD value with respect to HRAS wild-type protein to the KD value with respect to KRAS
[6] = Single Cycle Kinetics, 1:1 binding model
[7] = ratio of KD for GDP-bound NRAS wild-type protein to KD for KRAS
[8] = ratio of KD for HRAS wild-type protein to KD for KRAS

GDP-bound NRAS wild-type protein, sequence (P01111 whole entry): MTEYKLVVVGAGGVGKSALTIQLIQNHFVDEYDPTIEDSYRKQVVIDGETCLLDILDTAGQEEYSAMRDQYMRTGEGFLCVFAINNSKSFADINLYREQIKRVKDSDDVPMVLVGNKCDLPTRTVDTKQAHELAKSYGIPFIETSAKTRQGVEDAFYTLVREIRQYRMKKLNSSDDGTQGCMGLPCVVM

Row | SMILES | NRAS /KRAS [1, 4] | IC50 [2] [nM] | HRAS /KRAS (HRAS wild-type protein; [5]) | Kd [3, 6] [nM] | NRAS /KRAS [1, 7] | HRAS /KRAS (HRAS wild-type protein; [8]) | Kd ([3]; 1:1 binding model) [nM] | Kd ([3]; Single Cycle Kinetics) [nM]
1 | CCO[C@@H]1C[C@H]2C(=O)NC3(CC(C)(C)C3)C(=O)N(C)[C@@H](C3CCCC3)C(=O)N(C)[C@H](C(=O)N(C)C)CC(=O)N(C)[C@@H](CC(C)C)C(=O)N[C@@H]([C@@H](C)CC)C(=O)N(C3CC3)CC(=O)N(C)[C@H]3C/C=C\CCN(C3=O)[C@@H](Cc3ccc(C)cc3)C(=O)N(C)CC(=O)N[C@@H](CCc3cc(F)c(C(F)(F)F)c(F)c3)C(=O)N2C1 [PP2109] | A (a compound having 10 or more and less than 20 is denoted as A) | 5.7 | A (a compound having 10 or more and less than 20 is denoted as A) | 0.29 | – | – | – | –
2 | CCC[C@H]1C(=O)N[C@@H]([C@@H](C)CC)C(=O)N(C)CC(=O)N(C)[C@H]2C/C=C\CCN(C2=O)[C@@H](Cc2ccc(C)cc2)C(=O)N(C)CC(=O)N[C@@H](CCc2ccc(C(F)(F)F)c(OC)c2)C(=O)N2C[C@H](OCC)C[C@H]2C(=O)NC2(CC(C)(C)C2)C(=O)N(C)[C@@H](CC(F)(F)F)C(=O)N(C)[C@H](C(=O)N(C)C)CC(=O)N1C [PP3007] | – | 63.4 | – | – | A (a compound having 10 or more and less than 20 is denoted as A) | A (a compound having 10 or more and less than 20 is denoted as A) | 1.3 | –
3 | CC[C@H](C)[C@@H]1NC(=O)[C@H](C2CC2)N(C)C(=O)C[C@@H](C(=O)N(C)CC)N(C)C(=O)[C@H](C2CCCC2)N(C)C(=O)C2(CC(C)(C)C2)NC(=O)[C@@H]2C[C@H](C)CN2C(=O)[C@H](CCc2cc(F)c(C(F)(F)F)c(F)c2)NC(=O)CN(C)C(=O)[C@H](Cc2ccc(C(F)(F)F)cc2)N2CC/C=C\C[C@@H](C2=O)N(C)C(=O)CN(C)C1=O [PP1980] | A (a compound having 10 or more and less than 20 is denoted as A) | 30.1 | B (a compound having 3 or more and less than 10 is denoted as B) | 0.36 | – | – | – | –
4 | CCO[C@@H]1C[C@H]2C(=O)NC3(CC(C)(C)C3)C(=O)N(C)[C@@H](C3CCCC3)C(=O)N(C)[C@H](C(=O)N(C)C)CC(=O)N(C)[C@@H]([C@H](C)OC)C(=O)N[C@@H]([C@@H](C)CC)C(=O)N3CCC[C@H]3C(=O)N(C)[C@H]3C/C=C\CCN(C3=O)[C@@H](Cc3ccc(C(F)(F)F)cc3)C(=O)N(C)CC(=O)N[C@@H](CCc3ccc(C(F)(F)F)c(OC)c3)C(=O)N2C1 [PP3179] | – | 70.9 | – | – | A (a compound having 10 or more and less than 20 is denoted as A) | A (a compound having 10 or more and less than 20 is denoted as A) | 0.77 | –
5 | CCC[C@H]1C(=O)N[C@@H]([C@@H](C)CC)C(=O)N(C)CC(=O)N(C)[C@H]2C/C=C\CCN(C2=O)[C@@H](Cc2ccc(C)cc2)C(=O)N(C)CC(=O)N[C@@H](CCc2ccc(C(F)(F)F)c(Cl)c2)C(=O)N2C[C@H](CC)C[C@H]2C(=O)NC2(CCC2)C(=O)N(C)[C@@H](C2CCCC2)C(=O)N(C)[C@H](C(=O)N(C)C)CC(=O)N1C [PP2237] | A (a compound having 10 or more and less than 20 is denoted as A) | 64.7 | A (a compound having 10 or more and less than 20 is denoted as A) | 0.14 | – | – | – | –
6 | CCC[C@H]1C(=O)N[C@@H]([C@@H](C)CC)C(=O)N(C)CC(=O)N(C)[C@H]2C/C=C\CCN(C2=O)[C@@H](Cc2ccc(C)cc2)C(=O)N(C)CC(=O)N[C@@H](CCc2ccc3c(C)cn(C)c3c2)C(=O)N2C[C@H](OCC)C[C@H]2C(=O)NC2(CC(C)(C)C2)C(=O)N(C)[C@@H](C(CC)CC)C(=O)N(C)[C@H](C(=O)N(C)C)CC(=O)N1C [PP2910] | – | 39.8 | – | – | AA (a compound having 20 or more is denoted as AA) | A (a compound having 10 or more and less than 20 is denoted as A) | 3 | –
7 | CCCN1C(=O)[C@H](C2CCCC2)N(C)C(=O)C2(CCC2)NC(=O)[C@@H]2C[C@@H](OCC)CN2C(=O)[C@H](CCc2cc(F)c(C(F)(F)F)c(F)c2)NC(=O)CN(C)C(=O)[C@H](Cc2ccc(C(F)(F)F)cc2)N2CCCC[C@@H](C2=O)N(C)C(=O)CN(C)C(=O)[C@H]([C@@H](C)CC)NC(=O)[C@H](CC)N(C)C(=O)C[C@H]1C(=O)N(C)C [PP0644] | C (A compound having a KD ratio of 0.1 or more and less than 3 is denoted as C) | 20.7 | B (a compound having 3 or more and less than 10 is denoted as B) | 0.15 | – | – | – | –
8 | CCO[C@@H]1C[C@H]2C(=O)NC3(CCC3)C(=O)N(C)[C@@H](C3CCCC3)C(=O)N(C)[C@H](C(=O)N(C)CC)CC(=O)N(C)[C@@H](CC(C)C)C(=O)N[C@@H]([C@@H](C)CC)C(=O)N(C)CC(=O)N(C)[C@H]3C/C=C\CCN(C3=O)[C@@H](Cc3ccc(C(F)(F)F)cc3)C(=O)N(C)CC(=O)N[C@@H](CCc3ccc(Cl)c(Cl)c3)C(=O)N2C1 [PP2845] | – | 22.7 | – | – | AA (a compound having 20 or more is denoted as AA) | A (a compound having 10 or more and less than 20 is denoted as A) | 0.3 | –
9 | CCO[C@@H]1C[C@H]2C(=O)NC3(CCC3)C(=O)N(C)[C@@H](C3CCCC3)C(=O)N(C)[C@H](C(=O)N3CCOCC3)CC(=O)N(C)[C@@H](CC(C)C)C(=O)N[C@@H]([C@@H](C)CC)C(=O)N(C)CC(=O)N(C)[C@H]3CC=C(C)CN(C3=O)[C@@H](Cc3ccc(C(F)(F)F)cc3)C(=O)N(C)CC(=O)N[C@@H](CCc3cc(F)c(C(F)(F)F)c(F)c3)C(=O)N2C1 [PP0826] | – | 11.5 | – | – | C (A compound having a KD ratio of 0.1 or more and less than 3 is denoted as C) | B (a compound having 3 or more and less than 10 is denoted as B) | – | 0.13
10 | CCC[C@H]1C(=O)N[C@@H]([C@@H](C)CC)C(=O)N(C)CC(=O)N(C)[C@H]2C/C=C\CCN(C2=O)[C@@H](Cc2ccc(C)cc2)C(=O)N(C)CC(=O)N[C@@H](CCc2cc(Cl)c3sccc3c2)C(=O)N2C[C@H](OCC)C[C@H]2C(=O)NC2(CC(C)(C)C2)C(=O)N(C)[C@@H](C2CCCC2)C(=O)N(C)[C@H](C(=O)N(C)C)CC(=O)N1C [PP2947] | – | 3.5 | – | – | B (a compound having 3 or more and less than 10 is denoted as B) | B (a compound having 3 or more and less than 10 is denoted as B) | 0.12 | –
11 | CCCOC[C@H]1C(=O)N[C@@H]([C@@H](C)CC)C(=O)N(C)CC(=O)N(C)[C@H]2C/C=C\CCN(C2=O)[C@@H](Cc2ccc(C)cc2)C(=O)N(C)CC(=O)N[C@@H](CCc2ccc(C(F)(F)F)c(Cl)c2)C(=O)N2C[C@H](CC)C[C@H]2C(=O)NC2(CC(C)(C)C2)C(=O)N(C)[C@@H](C2CCCC2)C(=O)N(C)[C@H](C(=O)N(C)C)CC(=O)N1C [PP2235] | A (a compound having 10 or more and less than 20 is denoted as A) | 22.1 | A (a compound having 10 or more and less than 20 is denoted as A) | 0.28 | – | – | – | –
12 | CCC(CC)[C@H]1C(=O)N(C)[C@H](C(=O)N(C)C)CC(=O)N(C)[C@@H](COC)C(=O)N[C@@H]([C@@H](C)CC)C(=O)N(C)CC(=O)N(C)[C@H]2C/C=C\CCN(C2=O)[C@@H](Cc2ccc(C)cc2)C(=O)N(C)CC(=O)N[C@@H](CCc2ccc(Cl)c(Cl)c2)C(=O)N2C[C@H](OC3CCC3)C[C@H]2C(=O)N(C)C2(CC(C)(C)C2)C(=O)N1C [PP2816] | – | 22.8 | – | – | AA (a compound having 20 or more is denoted as AA) | A (a compound having 10 or more and less than 20 is denoted as A) | 0.39 | –
13 | CCO[C@@H]1C[C@H]2C(=O)NC3(CCC3)C(=O)N(C)[C@@H](C3CCCC3)C(=O)N(C)[C@H](C(=O)N(C)C)CC(=O)N(C)[C@@H](CC3CCCCC3)C(=O)N[C@@H]([C@@H](C)CC)C(=O)N(C)CC(=O)N(C)[C@H]3CCCCCN(C3=O)[C@@H](Cc3ccc(C(F)(F)F)cc3)C(=O)N(C)CC(=O)N[C@@H](CCc3cc(F)c(C(F)(F)F)c(F)c3)C(=O)N2C1 [PP0671] | B (a compound having 3 or more and less than 10 is denoted as B) | 32.5 | B (a compound having 3 or more and less than 10 is denoted as B) | 0.67 | – | – | – | –
14 | CCO[C@@H]1C[C@H]2C(=O)NC3(CCC3)C(=O)N(C)[C@@H](C3CCCC3)C(=O)N(C)[C@H](C(=O)N3C4CCC3COC4)CC(=O)N(C)[C@@H](CC)C(=O)N[C@@H]([C@@H](C)CC)C(=O)N(C)CC(=O)N(C)[C@H]3C/C=C\CCN(C3=O)[C@@H](Cc3ccc(C(F)(F)F)cc3)C(=O)N(C)CC(=O)N[C@@H](CCc3cc(F)c(C(F)(F)F)c(F)c3)C(=O)N2C1 [PP1093] | – | 78.7 | – | – | AA (a compound having 20 or more is denoted as AA) | A (a compound having 10 or more and less than 20 is denoted as A) | – | 0.58
15 | CCCOC[C@H]1C(=O)N[C@@H]([C@@H](C)CC)C(=O)N(C2CC2)CC(=O)N(C)[C@H]2C/C=C\CCN(C2=O)[C@@H](Cc2ccc(C(F)(F)F)cc2)C(=O)N(C)CC(=O)N[C@@H](CCc2ccc(C(F)(F)F)c(OC)c2)C(=O)N2C[C@H](OCC)C[C@H]2C(=O)N(C)C2(CCC2)C(=O)N(C)[C@@H](C2CCCC2)C(=O)N(C)[C@H](C(=O)N(C)C)CC(=O)N1C [PP2318] | A (a compound having 10 or more and less than 20 is denoted as A) | 3.3 | A (a compound having 10 or more and less than 20 is denoted as A) | 0.12 | – | – | – | –
